For 80 molecules, IC50 results are on record in the Kinase Knowledgebase extract (Sharma et al. 2016).

The structures appear in SMILES notation.

The test addresses MAPK14 (human) (UniProt Q16539). Put plainly: Inhibition of MAPK14 Kinase Activity.

MAPK14 (human), sequence (Q16539 whole entry, looked up): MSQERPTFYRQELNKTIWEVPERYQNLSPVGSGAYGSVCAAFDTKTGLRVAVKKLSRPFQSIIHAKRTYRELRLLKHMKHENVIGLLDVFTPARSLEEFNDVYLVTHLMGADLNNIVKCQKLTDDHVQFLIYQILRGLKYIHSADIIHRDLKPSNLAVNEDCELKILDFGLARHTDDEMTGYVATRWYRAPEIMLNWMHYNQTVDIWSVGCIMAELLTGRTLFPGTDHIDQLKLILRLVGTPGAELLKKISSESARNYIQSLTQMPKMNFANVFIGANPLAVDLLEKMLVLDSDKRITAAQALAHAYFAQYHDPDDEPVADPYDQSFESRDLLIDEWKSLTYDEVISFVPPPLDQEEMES

As usually defined, the IC50 is the concentration that inhibits the measured activity by half. On to `CC(C)NC(=O)c1csc(-c2oc(CN3CCOCC3)nc2-c2ccc(F)cc2)n1`, for which the IC50 was no more than 1000 nM. The result for `CC1=C(CCC(=O)N2CCN(Cc3nc(-c4ccc(F)cc4)c(-c4nc(C(=O)NC(C)C)cs4)o3)CC2)C=CCO1` reads no more than 1000 nM; that for `Cc1nc(-c2ccc(F)cc2)c(-c2nc(C(=O)NCc3ccc(F)c(F)c3)cs2)s1`, no more than 1000 nM. The result for `CC(C)NC(=O)c1csc(-c2oc(CNC(=O)c3cc(Cl)ccc3Cl)nc2-c2ccc(F)cc2)n1` reads no more than 1000 nM; that for `Cc1nc(-c2ccc(F)cc2)c(-c2nc(C(=O)NCCc3ccccc3)cs2)s1`, no more than 1000 nM; that for `Cc1nc(Br)sc1C(=O)NCc1nc(-c2ccc(F)cc2)c(-c2nc(C(=O)NC(C)C)cs2)o1`, no more than 1000 nM. Consider `Cc1cccc(C(=O)NCc2nc(-c3ccc(F)cc3)c(-c3nc(C(=O)NC(C)C)cs3)o2)c1[N+](=O)[O-]`, for which the IC50 is no more than 1000 nM. In the case of `CC(C)NC(=O)c1csc(-c2oc(CNC(=O)c3ccncc3Cl)nc2-c2ccc(F)cc2)n1`, the half-inhibitory concentration (IC50) was no more than 1000 nM. The result for `COc1cccc(OC)c1C(=O)NCc1nc(-c2ccc(F)cc2)c(-c2nc(C(=O)NC(C)C)cs2)o1` reads no more than 1000 nM; that for `CC(C)NC(=O)c1csc(-c2c(-c3ccc(F)cc3)noc2CN2CCNCC2)n1`, no more than 1000 nM.

In the case of `CC(C)NC(=O)c1csc(-c2oc(CN3CCN(C(=O)c4ccc(OC(C)C)cc4)CC3)nc2-c2ccc(F)cc2)n1`, the 50% inhibitory concentration (IC50) is no more than 1000 nM. The result for `Cc1nc(-c2ccc(F)cc2)c(-c2nc(C(=O)NCCOc3ccccc3)cs2)s1` reads no more than 1000 nM; that for `CC(C)NC(=O)c1csc(-c2oc(CNC(=O)c3ccc(F)cc3F)nc2-c2ccc(F)cc2)n1`, no more than 1000 nM. `COc1ccc(OC)c(CCNC(=O)c2csc(-c3sc(C)nc3-c3ccc(F)cc3)n2)c1` yielded a 50% inhibitory concentration (IC50) of no more than 1000 nM. Molecule `Cc1[nH]nc(-c2ccc(F)cc2)c1-c1nc(C(=O)NCc2ccncc2)cs1` gave a concentration for half-maximal inhibition (IC50) of no more than 1000 nM. Turning to `CC1=NN(c2ccc(C(=O)NCc3nc(-c4ccc(F)cc4)c(-c4nc(C(=O)NC(C)C)cs4)o3)cc2)C(=O)C1`, the IC50 is no more than 1000 nM. In turn, `CC(C)NC(=O)c1csc(-c2oc(CNCc3ccccn3)nc2-c2ccc(F)cc2)n1` displayed an IC50 of no more than 1000 nM. `Cc1cc(C)c(C(=O)N2CCN(Cc3nc(-c4ccc(F)cc4)c(-c4nc(C(=O)NC(C)C)cs4)o3)CC2)c(C)c1` yielded an IC50 of no more than 1000 nM. `CC(C)NC(=O)c1csc(-c2c(-c3ccc(F)cc3)n[nH]c2C2CCN(C(=O)c3cccnc3Cl)CC2)n1`: the IC50 is no more than 1000 nM. `O=C(NC1CCCC1)c1csc(-c2c(-c3ccc(F)cc3)n[nH]c2C2CCNCC2)n1`: the IC50 is no more than 1000 nM. In the case of `Cc1onc(-c2ccc(Cl)cc2)c1-c1ccn(C(=O)NC2CCCC2)n1`, the IC50 is no more than 1000 nM. `CC(C)NC(=O)c1csc(-c2c(-c3ccc(F)cc3)n[nH]c2C2CCN(C(=O)Cc3ccccc3O)CC2)n1` showed a concentration for half-maximal inhibition (IC50) of no more than 1000 nM.

`CC(C)NC(=O)c1csc(-c2c(-c3ccc(F)cc3)noc2CNCC#N)n1` displayed an IC50 of no more than 1000 nM. Molecule `CC(C)NC(=O)c1csc(-c2c(-c3ccc(F)cc3)n[nH]c2C2CCN(C(=O)c3cncc(Br)c3)CC2)n1` displayed a half-maximal inhibitory concentration (IC50) of no more than 1000 nM. The result for `CC(C)NC(=O)c1csc(-c2oc(CN3CCN(C(=O)c4cccc5ccccc45)CC3)nc2-c2ccc(F)cc2)n1` reads no more than 1000 nM; that for `CC(C)NC(=O)c1csc(-c2oc(CN3CCN(C(=O)c4ccc5cccc(O)c5n4)CC3)nc2-c2ccc(F)cc2)n1`, no more than 1000 nM; that for `Cc1nc(-c2ccc(F)cc2)c(-c2nc(C(=O)NC3CCCCC3)cs2)s1`, no more than 1000 nM. For `Cc1nc(-c2ccc(F)cc2)c(-c2nc(C(=O)Nc3ccccc3-c3ccccc3)cs2)s1`, the IC50 is no more than 1000 nM.

On to `CCNC(=O)c1csc(-c2c(-c3ccc(F)cc3)n[nH]c2C)n1`, for which the IC50 was no more than 1000 nM. As for `CCCN(C)Cc1onc(-c2ccc(F)cc2)c1-c1nc(C(=O)NC(C)C)cs1`, the IC50 was no more than 1000 nM. The molecule `CC(C)C(CO)NC(=O)c1csc(-c2c(-c3ccc(F)cc3)n[nH]c2C2CCNCC2)n1` (stereo not given) yielded an IC50 of no more than 1000 nM. To `CC(C)NC(=O)c1csc(-c2c(-c3ccc(F)cc3)noc2CNC(=O)Cc2cccc(O)c2)n1` belongs no more than 1000 nM; to `CC(C)NC(=O)c1csc(-c2oc(CN3CCN(C(=O)c4ccccc4Cc4ccccc4)CC3)nc2-c2ccc(F)cc2)n1`, no more than 1000 nM. Molecule `CCOC(=O)CC(C)NC(=O)c1csc(-c2sc(C)nc2-c2ccc(F)cc2)n1` (stereo not given) registered an IC50 of no more than 1000 nM. To `Cc1nc(-c2ccc(F)cc2)c(-c2nc(C(=O)NCCc3c[nH]c4ccccc34)cs2)s1` belongs no more than 1000 nM; to `COc1cccc(O)c1C(=O)N1CCN(Cc2nc(-c3ccc(F)cc3)c(-c3nc(C(=O)NC(C)C)cs3)o2)CC1`, no more than 1000 nM.

`CC(C)NC(=O)c1csc(-c2c(-c3ccc(F)cc3)noc2CNCCCN2CCCC2=O)n1` had a concentration for half-maximal inhibition (IC50) of no more than 1000 nM. `CC(C)NC(=O)c1csc(-c2c(-c3ccc(F)cc3)noc2CNC(=O)C(F)(F)F)n1` yielded an IC50 of no more than 1000 nM. The result for `Cc1onc(-c2ccc(F)cc2F)c1-c1ccn(C(=O)NC(C)C)n1` reads no more than 1000 nM.

In the case of `Cc1nc(-c2ccc(F)cc2)c(-c2nc(C(=O)NCc3ccccc3)cs2)s1`, the IC50 is no more than 1000 nM. Take `Cc1onc(-c2ccc(F)cc2)c1-c1nc(C(=O)NC(C)C)cs1`: the IC50 is no more than 1000 nM. Turning to `COc1ccc(Br)c(C(=O)NCc2nc(-c3ccc(F)cc3)c(-c3nc(C(=O)NC(C)C)cs3)o2)c1`, the half-maximal inhibitory concentration (IC50) was no more than 1000 nM. The molecule `CC(=O)Nc1cccc(C(=O)N2CCN(Cc3nc(-c4ccc(F)cc4)c(-c4nc(C(=O)NC(C)C)cs4)o3)CC2)c1` yielded a half-maximal inhibitory concentration (IC50) of no more than 1000 nM. Consider `CC(C)NC(=O)c1csc(-c2oc(CNC(=O)c3cc4cc(Cl)ccc4o3)nc2-c2ccc(F)cc2)n1`, for which the IC50 was no more than 1000 nM. As for `Cc1nc(-c2ccc(F)cc2)c(-c2nc(C(=O)NCc3ccc(Cl)cc3)cs2)s1`, the 50% inhibitory concentration (IC50) is no more than 1000 nM.

`CC(C)NC(=O)c1csc(-c2oc(CN3CCN(C(=O)c4cccc(O)c4O)CC3)nc2-c2ccc(F)cc2)n1` returned an IC50 of no more than 1000 nM.

Consider `CC(C)NC(=O)c1csc(-c2oc(CN3CCN(C(=O)c4ccccc4O)CC3)nc2-c2ccc(F)cc2)n1`, for which the IC50 is no more than 1000 nM. For the molecule `CC(C)NC(=O)c1csc(-c2oc(CN3CCN(C(=O)C4CCc5ccccc5C4)CC3)nc2-c2ccc(F)cc2)n1` (stereo not given), the half-inhibitory concentration (IC50) was no more than 1000 nM.

As to `CC(C)NC(=O)c1csc(-c2oc(CNC(=O)c3ccccc3Cl)nc2-c2ccc(F)cc2)n1`, the 50% inhibitory concentration (IC50) was no more than 1000 nM. As to `CC(C)NC(=O)c1csc(-c2oc(CNC(=O)c3cc(Br)ccc3Cl)nc2-c2ccc(F)cc2)n1`, the IC50 was no more than 1000 nM. With `CC(C)NC(=O)c1csc(-c2c(-c3ccc(F)cc3)n[nH]c2C2CCN(C(=O)c3ccc(C=O)cc3)CC2)n1`, the 50% inhibitory concentration (IC50) is no more than 1000 nM. As to `Cc1[nH]nc(-c2ccc(F)cc2)c1-c1nc(C(=O)NCc2ccccn2)cs1`, the IC50 is no more than 1000 nM. The result for `CC(=O)N1CCC(c2[nH]nc(-c3ccc(F)cc3)c2-c2nc(C(=O)NC(C)C)cs2)CC1` reads no more than 1000 nM; that for `CC(C)NC(=O)c1csc(-c2c(-c3ccc(F)cc3)noc2CN(C)C)n1`, no more than 1000 nM. Turning to `CC(C)NC(=O)c1csc(-c2c(-c3ccc(F)cc3)n[nH]c2C2CCN(C(=O)CO)CC2)n1`, the IC50 is no more than 1000 nM.

Molecule `CC(C)NC(=O)c1csc(-c2oc(CN3CCN(C(=O)C(F)(F)F)CC3)nc2-c2ccc(F)cc2)n1` returned an IC50 of no more than 1000 nM. In the case of `Cc1c(C(=O)N2CCC(c3[nH]nc(-c4ccc(F)cc4)c3-c3nc(C(=O)NC(C)C)cs3)CC2)oc2ccccc12`, the IC50 is no more than 1000 nM. Consider `CC(=O)N1CCC(n2cnc(-c3ccc(F)cc3)c2-c2nc(C(=O)NC(C)C)cs2)CC1`, for which the IC50 was no more than 1000 nM. Molecule `CC(C)NC(=O)c1csc(-c2oc(CN3CCN(C(=O)Cc4ccc(Br)cc4)CC3)nc2-c2ccc(F)cc2)n1` showed an IC50 of no more than 1000 nM. For the molecule `COc1ccc(CNC(=O)c2csc(-c3sc(C)nc3-c3ccc(F)cc3)n2)cc1O`, the IC50 is no more than 1000 nM.

As for `Cc1ccc(C(=O)N2CCN(Cc3nc(-c4ccc(F)cc4)c(-c4nc(C(=O)NC(C)C)cs4)o3)CC2)c(C)c1`, the 50% inhibitory concentration (IC50) was no more than 1000 nM.

In turn, `Cc1[nH]nc(-c2ccc(F)cc2)c1-c1nc(C(=O)NCC2CC2)cs1` had an IC50 of no more than 1000 nM. `Cc1nc(-c2ccc(F)cc2)c(-c2nc(C(=O)NC(CO)C(C)C)cs2)s1` (stereo not given): the IC50 is no more than 1000 nM. The result for `CC(C)NC(=O)c1csc(-c2c(-c3ccc(F)cc3)noc2C2CCNCC2)n1` reads no more than 1000 nM; that for `CC(C)NC(=O)c1csc(-c2oc(CNC(C)C(C)C)nc2C2=CC=C(F)OC2)n1` (stereo not given), no more than 1000 nM. `CC(C)NC(=O)c1csc(-c2oc(CN3CCN(C(=O)c4cnc(O)c(Cl)c4)CC3)nc2-c2ccc(F)cc2)n1` displayed an IC50 of no more than 1000 nM.

Molecule `CC(C)NC(=O)c1csc(-c2oc(CN3CCN(C(=O)c4cnc[nH]4)CC3)nc2-c2ccc(F)cc2)n1` yielded an IC50 of no more than 1000 nM. In turn, `CC(C)NC(=O)c1csc(-c2oc(CNC(=O)c3ccc(-c4ccc(O)cc4)cc3)nc2-c2ccc(F)cc2)n1` showed a half-maximal inhibitory concentration (IC50) of no more than 1000 nM. For `CCC(CO)NCc1nc(-c2ccc(F)cc2)c(-c2nc(C(=O)NC(C)C)cs2)o1` (stereo not given), the half-inhibitory concentration (IC50) is no more than 1000 nM. The result for `CC(C)NC(=O)c1csc(-c2oc(CNC(=O)c3cc(O)ccc3[N+](=O)[O-])nc2-c2ccc(F)cc2)n1` reads no more than 1000 nM; that for `CC(C)NC(=O)c1csc(-c2oc(CNC(=O)c3cc(O)c(O)c(O)c3)nc2-c2ccc(F)cc2)n1`, no more than 1000 nM. With `CC(C)NC(=O)c1csc(-c2c(-c3ccc(F)cc3)noc2CN)n1`, the 50% inhibitory concentration (IC50) was no more than 1000 nM. `CC(C)NC(=O)c1csc(-c2oc(CNC(=O)c3ccc(C#N)cc3)nc2-c2ccc(F)cc2)n1` displayed a concentration for half-maximal inhibition (IC50) of no more than 1000 nM. The molecule `CC(C)NC(=O)n1ccc(-c2c(-c3ccc(F)cc3)noc2CN(C)C)n1` returned an IC50 of no more than 1000 nM. For `CNC(=O)c1csc(-c2c(-c3ccc(F)cc3)n[nH]c2C2CCNCC2)n1`, the half-maximal inhibitory concentration (IC50) was no more than 1000 nM. The molecule `CC(C)NC(=O)c1csc(-c2c(-c3ccc(F)cc3)ncn2C2CCNCC2)n1` came in with a half-maximal inhibitory concentration (IC50) of no more than 1000 nM.

On to `O=C(NCC(F)(F)F)c1csc(-c2c(-c3ccc(F)cc3)ncn2C2CCNCC2)n1`, for which the IC50 was no more than 1000 nM.

The molecule `CC(C)NC(=O)c1csc(-c2oc(CNC(=O)c3cc(C(C)C)cc(C(C)C)c3O)nc2-c2ccc(F)cc2)n1` displayed a concentration for half-maximal inhibition (IC50) of no more than 1000 nM. The molecule `CC(C)NC(=O)c1csc(-c2oc(CN3CCN(C(=O)c4cc(Cl)ccc4O)CC3)nc2-c2ccc(F)cc2)n1` gave an IC50 of no more than 1000 nM.

The molecule `CC(C)NC(=O)c1csc(-c2c(-c3ccc(F)cc3)ncn2C)n1` returned a 50% inhibitory concentration (IC50) of no more than 1000 nM.
